According to patent publication US10294202B2, “Pyrrolidinones as herbicides” (FMC Corporation, priority 2013, dated 2019):

Assays:
barnyardgrass [1] = experiment: Test A pre-/postemergence herbicide test; type: in vivo, Echinochloa crus-galli; conditions: for Barnyardgrass plant response rating: visual rating on 0 to 100 scale (0 no effect, 100 complete control)
How it was run: (§1)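 Directed soil spray to seeded pots (preemergence) or spray onto one- to two-leaf seedlings 2–10 cm tall (postemergence); loam/sand substrate throughout. Evaluated visually after about 10 days against untreated plants, 0 = no effect, 100 = complete control.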

crabgrass, large = experiment: Test A pre-/postemergence herbicide test; type: in vivo, Digitaria sanguinalis; conditions: for Crabgrass, Large plant response rating: Preemergence, visual rating on 0 to 100 scale (0 no effect, 100 complete control)
How it was run: as §1

giant foxtail = experiment: Test A pre-/postemergence herbicide test; type: in vivo, Setaria faberii; conditions: for Foxtail, Giant plant response rating: visual rating on 0 to 100 scale (0 no effect, 100 complete control)
How it was run: as §1

morningglory = experiment: Test A pre-/postemergence herbicide test; type: in vivo, Ipomoea spp.
How it was run: as §1

pigweed = experiment: Test A pre-/postemergence herbicide test; type: in vivo, Amaranthus retroflexus; conditions: for Pigweed plant response rating: visual rating on 0 to 100 scale (0 no effect, 100 complete control)
How it was run: as §1

velvetleaf = experiment: Test A pre-/postemergence herbicide test; type: in vivo, Abutilon theophrasti; conditions: for Velvetleaf plant response rating: visual rating on 0 to 100 scale (0 no effect, 100 complete control)
How it was run: as §1

wheat = experiment: Test A pre-/postemergence herbicide test; type: in vivo, Triticum aestivum; conditions: for Wheat plant response rating: visual rating on 0 to 100 scale (0 no effect, 100 complete control)
How it was run: as §1

corn = experiment: Test A pre-/postemergence herbicide test; type: in vivo, Zea mays; conditions: for Corn plant response rating: visual rating on 0 to 100 scale (0 no effect, 100 complete control)
How it was run: as §1

rice = experiment: Test B flooded paddy test; type: in vivo, Oryza sativa; conditions: Flood, scale of 0 to 100 where 0 is no effect and 100 is complete control
How it was run: (§2)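 Paddy-water application at a 3 cm flood, young plants having two leaves. Water level maintained; greenhouse, 13–15 days; visual 0–100 control rating.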

sedge, umbrella = experiment: Test B flooded paddy test; type: in vivo, Cyperus difformis; conditions: Flood, scale of 0 to 100 where 0 is no effect and 100 is complete control
How it was run: as §2

ducksalad = experiment: Test B flooded paddy test; type: in vivo, Heteranthera limosa; conditions: Flood, scale of 0 to 100 where 0 is no effect and 100 is complete control
How it was run: as §2

barnyardgrass [2] = experiment: Test B flooded paddy test; type: in vivo, Echinochloa crus-galli; conditions: Flood, scale of 0 to 100 where 0 is no effect and 100 is complete control
How it was run: as §2

[3] = Postemergence, 125 g ai/ha, 0 to 100 scale, 0 no effect, 100 complete control
[4] = Postemergence, 500 g ai/ha, 0 to 100 scale (0 no effect, 100 complete control)
[5] = preemergence, 500 g ai/ha, 0 to 100 scale (0 no effect, 100 complete control)
[6] = preemergence, 500 g ai/ha, 0 to 100 scale
[7] = Postemergence, 125 g ai/ha, 0 to 100 scale, 0 is no effect, 100 is complete control
[8] = Preemergence, 125 g ai/ha, 0 to 100 scale where 0 is no effect and 100 is complete control
[9] = preemergence, 500 g ai/ha, 0 to 100 scale, 0 is no effect and 100 is complete control

O=C1NCC(c2ccc(Cl)nc2)C1C(=O)Nc1ccccc1C(F)(F)F (stereo not drawn) [Compound 42]
Plant response rating, Barnyardgrass (barnyardgrass [1]; [3]): 0 | Plant response rating, Barnyardgrass (barnyardgrass [1]; [4]): 40 | Barnyardgrass plant response rating (barnyardgrass [1]; Preemergence, 125 g ai/ha): 0 | Plant response rating, Barnyardgrass (barnyardgrass [1]; [5]): 60 | Plant response rating, Crabgrass, Large (crabgrass, large; [3]): 0 | Plant response rating, Crabgrass, Large (crabgrass, large; [4]): 70 | Crabgrass, Large plant response rating (crabgrass, large; 125 g ai/ha): 80 | Plant response rating, Crabgrass, Large (crabgrass, large; [6]): 90 | Plant response rating, Foxtail, Giant (giant foxtail; [3]): 0 | Plant response rating, Foxtail, Giant (giant foxtail; [4]): 20 | Foxtail, Giant plant response rating (giant foxtail; Preemergence, 125 g ai/ha): 20 | Plant response rating, Foxtail, Giant (giant foxtail; [6]): 80 | Plant response rating, Morningglory (morningglory; [3]): 0 | Plant response rating, Morningglory (morningglory; [4]): 0 | Plant response rating, Pigweed (pigweed; [3]): 0 | Plant response rating, Pigweed (pigweed; [4]): 0 | Pigweed plant response rating (pigweed; Preemergence, 125 g ai/ha): 0 | Plant response rating, Pigweed (pigweed; [6]): 30 | Plant response rating, Velvetleaf (velvetleaf; [3]): 30 | Plant response rating, Velvetleaf (velvetleaf; [4]): 50 | Velvetleaf plant response rating (velvetleaf; Preemergence, 125 g ai/ha): 0 | Plant response rating, Velvetleaf (velvetleaf; [6]): 0 | Plant response rating, Wheat (wheat; [3]): 0 | Plant response rating, Wheat (wheat; [4]): 0 | Wheat plant response rating (wheat; Preemergence, 125 g ai/ha): 0 | Plant response rating, Wheat (wheat; [6]): 0 | Plant response rating, Corn (corn; [3]): 0 | Plant response rating, Corn (corn; [4]): 0 | Corn plant response rating (corn; Preemergence, 125 g ai/ha): 0 | Plant response rating, Corn (corn; [6]): 0 | Plant response rating, Rice (rice; 250 g ai/ha): 0 | Plant response rating, Sedge, Umbrella (sedge, umbrella; 250 g ai/ha): 0 | Plant response rating, Ducksalad (ducksalad; 250 g ai/ha): 60 | Plant response rating, Barnyardgrass (barnyardgrass [2]; 250 g ai/ha): 0

O=C1NCC(c2ccc(C(F)(F)F)cc2F)C1C(=O)Nc1ccccc1F (racemic) [Compound 259]
Plant response rating, Barnyardgrass (barnyardgrass [1]; [7]): 50 | Plant response rating, Barnyardgrass (barnyardgrass [1]; [4]): 70 | Plant response rating, Barnyardgrass (barnyardgrass [1]; [8]): 10 | Plant response rating, Barnyardgrass (barnyardgrass [1]; [9]): 80 | Plant response rating, Crabgrass, Large (crabgrass, large; [7]): 80 | Plant response rating, Crabgrass, Large (crabgrass, large; [4]): 90 | Plant response rating, Crabgrass, Large (crabgrass, large; [9]): 90 | Plant response rating, Foxtail, Giant (giant foxtail; [7]): 50 | Plant response rating, Foxtail, Giant (giant foxtail; [4]): 70 | Plant response rating, Foxtail, Giant (giant foxtail; [8]): 60 | Plant response rating, Foxtail, Giant (giant foxtail; [9]): 90 | Plant response rating, Morningglory (morningglory; [7]): 0 | Plant response rating, Morningglory (morningglory; [4]): 0 | Plant response rating, Morningglory (morningglory; [8]): 0 | Plant response rating, Morningglory (morningglory; [9]): 0 | Plant response rating, Pigweed (pigweed; [7]): 0 | Plant response rating, Pigweed (pigweed; [4]): 0 | Plant response rating, Pigweed (pigweed; [8]): 0 | Plant response rating, Pigweed (pigweed; [9]): 0 | Plant response rating, Velvetleaf (velvetleaf; [7]): 0 | Plant response rating, Velvetleaf (velvetleaf; [4]): 0 | Plant response rating, Velvetleaf (velvetleaf; [8]): 0 | Plant response rating, Velvetleaf (velvetleaf; [9]): 0 | Plant response rating, Wheat (wheat; [7]): 0 | Plant response rating, Wheat (wheat; [4]): 0 | Plant response rating, Wheat (wheat; [8]): 0 | Plant response rating, Wheat (wheat; [9]): 0 | Plant response rating, Corn (corn; [7]): 0 | Plant response rating, Corn (corn; [4]): 0 | Plant response rating, Corn (corn; [8]): 0 | Plant response rating, Corn (corn; [9]): 0 | Plant response rating, Rice (rice; 1000 g ai/ha): 10 | Plant response rating, Sedge, Umbrella (sedge, umbrella; 1000 g ai/ha): 10 | Plant response rating, Ducksalad (ducksalad; 1000 g ai/ha): 90 | Plant response rating, Barnyardgrass (barnyardgrass [2]; 1000 g ai/ha): 20

O=C1NCC(c2ccc(F)c(F)c2)C1C(=O)Nc1cccc(F)c1C(F)(F)F (stereo not drawn) [Compound 67]
Plant response rating, Barnyardgrass (barnyardgrass [1]; [3]): 40 | Plant response rating, Barnyardgrass (barnyardgrass [1]; [4]): 60 | Barnyardgrass plant response rating (barnyardgrass [1]; Preemergence, 125 g ai/ha): 30 | Plant response rating, Barnyardgrass (barnyardgrass [1]; [5]): 70 | Plant response rating, Crabgrass, Large (crabgrass, large; [3]): 50 | Plant response rating, Crabgrass, Large (crabgrass, large; [4]): 90 | Crabgrass, Large plant response rating (crabgrass, large; 125 g ai/ha): 90 | Plant response rating, Crabgrass, Large (crabgrass, large; [6]): 90 | Plant response rating, Foxtail, Giant (giant foxtail; [3]): 80 | Plant response rating, Foxtail, Giant (giant foxtail; [4]): 90 | Foxtail, Giant plant response rating (giant foxtail; Preemergence, 125 g ai/ha): 80 | Plant response rating, Foxtail, Giant (giant foxtail; [6]): 90 | Plant response rating, Morningglory (morningglory; [3]): 0 | Plant response rating, Morningglory (morningglory; [4]): 0 | Morningglory plant response rating (morningglory; Preemergence, 125 g ai/ha, visual rating on 0 to 100 scale (0 no effect, 100 complete control)): 0 | Plant response rating, Morningglory (morningglory; [6]): 0 | Plant response rating, Pigweed (pigweed; [3]): 0 | Plant response rating, Pigweed (pigweed; [4]): 20 | Pigweed plant response rating (pigweed; Preemergence, 125 g ai/ha): 0 | Plant response rating, Pigweed (pigweed; [6]): 0 | Plant response rating, Velvetleaf (velvetleaf; [3]): 0 | Plant response rating, Velvetleaf (velvetleaf; [4]): 0 | Velvetleaf plant response rating (velvetleaf; Preemergence, 125 g ai/ha): 0 | Plant response rating, Velvetleaf (velvetleaf; [6]): 0 | Plant response rating, Wheat (wheat; [3]): 0 | Plant response rating, Wheat (wheat; [4]): 0 | Wheat plant response rating (wheat; Preemergence, 125 g ai/ha): 0 | Plant response rating, Wheat (wheat; [6]): 0 | Plant response rating, Corn (corn; [3]): 0 | Plant response rating, Corn (corn; [4]): 0 | Corn plant response rating (corn; Preemergence, 125 g ai/ha): 0 | Plant response rating, Corn (corn; [6]): 0 | Plant response rating, Rice (rice; 250 g ai/ha): 0 | Plant response rating, Sedge, Umbrella (sedge, umbrella; 250 g ai/ha): 50 | Plant response rating, Ducksalad (ducksalad; 250 g ai/ha): 70 | Plant response rating, Barnyardgrass (barnyardgrass [2]; 250 g ai/ha): 0
